According to patent US6897319B2, “Useful aroyl pyrrole heteroaryl methanones and methanols” (Ortho-McNeil Pharmaceutical, Inc., priority 2001, dated 2005):
Marks after values point to notes of the source that are not given here.

Columns and labels:
[1] = system: voltage-gated sodium channels; experiment: Fluorometric membrane potential assay in SK-N-SH cells (veratridine stimulus, FLIPR); assay type: cell-based; conditions: 10 μM compound, 5 μM veratridine
Protocol: Screening Assay for Voltage-Gated Sodium Channel Antagonists Fluorometric Membrane Potential Assay
SK-N-SH neuroblastoma cells were maintained in a propagation medium containing modified Eagle's medium and 10% (v/v) fetal bovine serum and were incubated at 37° C. in a 5% CO2 atmosphere. Only cells with fewer than 20 passages were used in each assay. All drugs were prepared in DMSO, and the final concentration of solvent was less than 0.1% (v/v). Veratridine, a toxin that selectively promotes persistent activation of voltage-gated sodium channels, served as the stimulus. 24 hr prior to testing, 1×10^5 cells/well were plated into 96-well plates specifically designed for use in a fluorescent imaging plate reader (FLIPR) (Molecular Devices, Sunnyvale, Calif.)
Prior to screening, monolayers of cells were loaded with 100 μL/well of a proprietary voltage-sensitive dye (Molecular Devices, Sunnyvale, Calif.) for 30 min at 37° C. After this incubation period, the cells were stimulated with 5 μM veratridine in the presence or absence of investigational compounds (prepared at a final concentration of 10 μM in DMSO). A sample containing 5 μM veratridine and 10 μM tetrodotoxin accounted for nonspecific activity. The fluorescence was monitored by the FLIPR (Molecular Devices) from 10 sec prior to drug addition (50 μL) to 170 sec after drug addition at 25° C. During sodium channel activation, the cells depolarize and the dye associates with cell membranes, resulting in increased fluorescence.

[2] = system: voltage-gated sodium channels; experiment: [14C]guanidinium flux assay in SK-N-SH cells (veratridine stimulus); assay type: cell-based; conditions: 10 μM compound, 100 μM veratridine
Protocol: Screening Assay for Voltage-Gated Sodium Channel Antagonists [^14C] Guanidinium Flux Assay
SK-N-SH neuroblastoma cells were maintained in a propagation medium containing modified Eagle's medium and 10% (v/v) fetal bovine serum and were incubated at 37° C. in a 5% CO2 atmosphere. Only cells with fewer than 20 passages were used in each assay. All drugs were prepared in DMSO, and the final concentration of solvent was less than 0.1% (v/v). Veratridine, a toxin that selectively promotes persistent activation of voltage-gated sodium channels, served as the stimulus.
SK-N-SH cells were plated at 1×10^5 cells/well in 96-well Cytostar-T microscintillating plates in propagation medium and experiments were performed 6-7 days after plating. Prior to assay, the SK-N-SH cells were washed twice with assay buffer containing 50 mM HEPES (pH 7.45), 5.4 mM potassium chloride, 0.8 mM magnesium chloride, 130 mM choline chloride, 5.5 mM glucose and 0.1 mg/mL bovine serum albumin. Next, the plates were allowed to equilibrate for 10 min at 37° C. in assay buffer. After this incubation period, the cells were stimulated with 100 μM veratridine in the presence or absence of investigational compounds prepared in a 96-well plate (prepared at a final concentration of 10 μM in DMSO). The 96-well dosing plate was prepared by mixing 25 μL of a drug/assay buffer solution per well with 25 μL of 0.7 μCi/mL [^14C]guanidine hydrochloride in assay buffer. 50 μL aliquots from the dosing plate were then added to the cells. One sample containing 100 μM veratridine and 10 μM tetrodotoxin accounted for nonspecific activity. The plates were incubated for 1 hr at room temperature and the radioactivity was counted in a 1450 Microbeta scintillation counter.

[3] = system: maximal electroshock extensor seizure; experiment: Mouse maximal electroshock test (MES) anticonvulsant model; assay type: in vivo; conditions: oral
Protocol: Procedure for Testing in Mouse Anticonvulsant Model
The activity of the present compounds as anticonvulsant agents was determined using a standard mouse “maximal electroshock test” (MES). In this test, activity was indicated by a block of the […] extensor seizure, as described by Swinyard, et al. (J. Pharmacol. Exptl. Therap., 1952, 106, 319). A more recent description of current anticonvulsant drug screening is given in Swinyard, et al., in Epilepsia, 1978, 19, 409.
The anticonvulsant activity of the instant compounds is shown in Table 5 and was evaluated according to the Swinyard (1952) method. The abbreviations used in the table have the following meanings: mpk refers to the dose orally administered in “mg per Kg;” and, ED50 refers to the “50% Effective Dose” orally administered in mpk. The values marked by an * represent the number of mice protected/number of mice tested; therefore, a value of 3/3 represents that the number of mice protected matched the number of mice tested at the indicated dose.

[4] = system: mechanical allodynia after L5 spinal nerve ligation; experiment: Chung Model (spinal nerve ligation) antiallodynic effect; assay type: in vivo; conditions: rat; for % MPE in the Chung Model: oral, screening dose (not given)
From the text: Procedure for Testing Antiallodynic Effect
The procedure used to detect the antiallodynic effect of a compound of the present invention for which there is a good correlation with human efficacy for the treatment of pain is the procedure for the measurement of allodynia found in the Chung Model (Kim S. H. and Chung J. M., An Experimental Model for Peripheral Neuropathy Produced by Segmental Spinal Nerve Ligation in the Rat, Pain, 1992, 50, 355-363). The antiallodynic effect of the composition of the present invention in the Chung Model is expressed in % MPE (Maximum Possible Effect).
Male Sprague-Dawley rats, weighing approximately 200 g each were anesthetized with isoflurane. The spinal nerve at the level of L5 was exposed through an incision just left of the dorsal midline and tightly ligated with 6-0 silk. At various times after surgery, animals were tested for mechanical allodynia with von Frey hairs (monofilaments which are calibrated to bend under a certain amount of pressure, ranging from 0.41 to 15.1 g). In order to calculate a paw withdrawal threshold (PWT), tactile allodynia was measured by recording the pressure at which the affected paw was withdrawn from graded stimuli according to the procedure of S. R. Chaplan, J. W. Pogrel, T. L. Yaksh, Role of Voltage-Dependent Calcium Channel Subtypes in Experimental Tactile Allodynia, J. Pharmacol. Exp. Ther., 1994, 269, 1117-1123. Normal rats can withstand at least 15 g of pressure without responding. Operated rats, however, can respond to as little as 0.25 g of pressure. The surgery was deemed successful if the animal responded with a PWT of less than 4 g of pressure applied to the affected paw. […] The PWT was used to calculate the % maximal possible effect (% MPE) according to the formula: %MPE=100×[(PWT−CT)/(CO−CT)]; wherein PWT is defined as Paw Withdrawal Threshold, CT is Control Threshold, and CO is Cut Off (defined as 15 g).
The sham operation consisted of a similar surgery; the spinal nerve was visualized without being ligated.
Compounds selected from Formula (I) and Formula (II) were tested for activity in treating or modulating neuropathic pain by being dissolved or suspended in either water or hydroxypropyl methylcellulose, respectively. Postoperative animals between 14 to 42 days were fasted overnight prior to dosing. Animals were orally dosed and dosage volumes were calculated on a 4 mL/kg basis.

| SMILES | % FI at 10 μM (% fluorescence inhibition) [1] [%] | % GFI at 10 μM (% guanidinium flux inhibition) [2] [%] | MES Response, number of mice protected/number of mice tested ([3]; @ 300 mpk) | % MPE in the Chung Model [4] [%] | ED50 in the Chung Model ([4]; orally administered) | MES Response, number of mice protected/number of mice tested ([3]; @ 30 mpk) | MES Response, number of mice protected/number of mice tested ([3]; @ 100 mpk) |
| --- | --- | --- | --- | --- | --- | --- | --- |
| Cn1cc(C(=O)c2ccc3ccccc3c2)cc1C(=O)c1cccnc1 [Cpd 8, [1-Methyl-5-(pyridine-3-carbonyl)-1H-pyrrol-3-yl]naphthalen-2-yl-methanone] | 67 | 82 | 0/1* @ 300 mpk | 1.3 | – | – | – |
| Cn1cc(C(O)c2ccncc2)cc1C(=O)c1ccc(Cl)cc1 (centres unmarked) [Cpd 12, (4-Chlorophenyl)-[4-(hydroxypyridin-4-yl-methyl)-1-methyl-1H-pyrrol-2-yl]-methanone] | 60 | – | – | 3.7 | – | – | – |
| Cl.Cn1cc(C(=O)c2cccnc2)cc1C(=O)c1ccc(Cl)cc1.Cn1cc(C(=O)c2cccnc2)cc1C(=O)c1ccc(Cl)cc1.O [Cpd 5, [5-(4-Chlorobenzoyl)-1-methyl-1H-pyrrol-3-yl]pyridin-3-ylmethanone hydrochoride hydrate [2:1:1]] | 26 | 55 | – | 9 | – | – | – |
| Cn1cc(C(=O)c2cc[n+](C)cc2)cc1C(=O)c1ccc(Cl)cc1.O.O=S(=O)([O-])C(F)(F)F [Cpd 14, 4-[[5-(4-Chlorobenzoyl)-1-methyl-1H-pyrrol-3-yl]carbonyl]-1-methylpyridinium trifluoromethanesulfonate hydrate [5:1]] | 54 | 14 | – | – | – | – | – |
| Cc1c(C(=O)c2ccc(F)cc2)c(C)n(C)c1C(=O)c1cccnc1 [Cpd 17, (4-Fluorophenyl)-[1,2,4-trimethyl-5-(pyridine-3-carbonyl)-1H-pyrrol-3-yl]methanone] | 15 | – | – | 59 | – | – | – |
| Cn1cc(C(=O)c2cnc[nH]2)cc1C(=O)c1ccc(Cl)cc1 [Cpd 13, (4-Chlorophenyl)-[4-(3H-imidazole-4-carbonyl)-1-methyl-1H-pyrrol-2-yl]methanone] | 62 | 24 | – | – | – | – | – |
| Cn1cc(C(=O)c2cc[n+]([O-])cc2)cc1C(=O)c1ccc(Cl)cc1 [Cpd 15, (4-Chlorophenyl)-[1-methyl-4-(1-oxypyridine-4-carbonyl)-1H-pyrrol-2-yl]methanone] | 40 | 4 | – | 7.9 | – | – | – |
| Cl.Cn1cc(C(=O)c2ccncc2)cc1C(=O)c1cccs1 [Cpd 4, [1-Methyl-5-(thiophene-2-carbonyl)-1H-pyrrol-3-yl]pyridin-4-ylmethanone hydrochloride] | 49 | – | 0/1* @ 300 mpk | – | – | – | – |
| Cn1cc(C(=O)c2ccc(F)cc2)cc1C(=O)c1ccncc1 [Cpd 11, (4-Fluorophenyl)-[1-methyl-5-(pyridine-4-carbonyl)-1H-pyrrol-3-yl]methanone] | 39 | – | 0/1* @ 300 mpk | 10 | – | – | – |
| Cn1cc(C(=O)c2ccc(Cl)cc2)cc1C(=O)c1ccc(Cl)nc1 [Cpd 9, (4-Chlorophenyl)-[5-(6-chloropyridine-3-carbonyl)-1-methyl-1H-pyrrol-3-yl]methanone] | 26 | 31 | – | 5 | – | – | – |
| Cn1cc(C(O)c2cc[n+]([O-])cc2)cc1C(=O)c1ccc(Cl)cc1 (centres unmarked) [Cpd 16, (4-Chlorophenyl)-{4-[hydroxy-(1-oxy-pyridin-4-yl)methyl]-1-methyl-1H-pyrrol-2-yl}methanone] | 29 | – | – | – | ED50 = 29 mpk | – | – |
| Cn1cc(C(=O)c2ccccn2)cc1C(=O)c1ccc(Cl)cc1 [Cpd 6, [5-(4-Chlorobenzoyl)-1-methyl-1H-pyrrol-3-yl]pyridin-2-yl-methanone] | 25 | 74 | – | 12 | – | 1/1* @ 30 mpk | – |
| Cn1cc(C(=O)c2ccc(F)cc2)cc1C(=O)c1ccccn1 [Cpd 10, (4-Fluorophenyl)-[1-methyl-5-(pyridine-2-carbonyl)-1H-pyrrol-3-yl]methanone] | 60 | 46 | 0/1* @ 300 mpk | 11 | – | – | – |
| Cc1ccc(C(=O)c2cc(C(=O)c3ccncc3)cn2C)cc1.Cl [Cpd 3, [1-Methyl-5-(4-methylbenzoyl)-1H-pyrrol-3-yl]pyridin-4-ylmethanone Hydrochloride] | 45 | – | – | 5 | – | – | 3/3* @ 100 mpk |
| Cn1cc(C(=O)c2ccncc2)cc1C(=O)c1ccccc1 [Cpd 2, (5-Benzoyl-1-methyl-1H-pyrrol-3-yl)pyridin-4-ylmethanone] | 76 | – | – | 7 | – | – | – |
